# Experimental data as given in US20230085307A1, “PYRIDAZINONE COMPOUND AND HERBICIDE” (NISSAN CHEMICAL CORPORATION, priority 2019, published 2023).
# Tests used:
# [1] = system: southern crabgrass; assay: Test Example 5: herbicidal effect by foliage application, plastic box (Table 20, symbol F); assay type: in vivo, southern crabgrass (Digitaria ciliaris); conditions: for herbicidal effect on southern crabgrass (F): foliage application, 320 g/ha, three weeks after application
# Summary of the method: (§1)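 Plants were sown into sterilized diluvial soil under about 1.5 cm cover and kept in a greenhouse at 25° C. to 30° C. Fourteen days on, foliage received an even spray of the diluted emulsion. Herbicidal or crop effect was judged three weeks afterwards.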
# [2] = system: rice flat sedge; assay: Test Example 3: herbicidal effect by foliage application, Wagner pot (Table 18, symbol E); assay type: in vivo, rice flat sedge (Cyperus iria); conditions: for herbicidal effect on rice flat sedge (E): 320 g/ha
# Summary of the method: (§2)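 Plants were sown in alluvial soil held under 0.1–0.5 cm standing water and grown 14 days in a greenhouse at 25–30 °C. An emulsifiable formulation, water-diluted to the set dose, was then sprayed onto the foliage, and effects were scored three weeks later using previously defined criteria.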
# [3] = system: redroot pigweed; assay: Test Example 5: herbicidal effect by foliage application, plastic box (Table 20, symbol N); assay type: in vivo, redroot pigweed (Amaranthus retroflexus); conditions: amount of applied herbicide 320 g/ha; foliage application after 14-day growth; evaluated three weeks after application
# From the text: [Test Example 5] Herbicidal Effect Test by Foliage Application
# Sterilized diluvial soil was placed in a plastic box having a length of 21 cm, a width of 13 cm, and a depth of 7 cm. The seeds of each of southern crabgrass, green foxtail, barnyard grass, wild oat, blackgrass, Italian ryegrass, windgrass, velvetleaf, redroot pigweed, lambsquarters, chickweed, false cleavers, persian speedwell, corn, soybean, rice, wheat, beet, and rapeseed were sowed in a spot-like manner and covered with the soil having a thickness of about 1.5 cm. Thereafter, the plants were grown in a greenhouse at 25° C. to 30° C. After 14-day growth of the plants, the emulsion agent of the compound of the present invention prepared according to Formulation Example 2 was diluted with water so as to achieve a predetermined herbicide amount, and the diluted emulsion agent was uniformly applied to a foliage part with a small-sized spray. Three weeks after the herbicide application, the effect of the herbicide on each plant was evaluated according to the criteria of Test Example 1.
# [4] = system: blackgrass; assay: Test Example 5: herbicidal effect by foliage application, plastic box (Table 20, symbol J); assay type: in vivo, blackgrass (Alopecurus myosuroides); conditions: for herbicidal effect on blackgrass (J): foliage application, 320 g/ha, three weeks after application
# Summary of the method: as §1
# [5] = system: velvetleaf; assay: Test Example 5: herbicidal effect by foliage application, plastic box (Table 20, symbol M); assay type: in vivo, velvetleaf (Abutilon theophrasti); conditions: for herbicidal effect on velvetleaf (M): foliage application, 320 g/ha, three weeks after application
# Summary of the method: as §1
# [6] = system: Italian ryegrass; assay: Test Example 5: herbicidal effect by foliage application, plastic box (Table 20, symbol K); assay type: in vivo, Italian ryegrass (Lolium multiflorum); conditions: for herbicidal effect on Italian ryegrass (K): foliage application, 320 g/ha, three weeks after application
# Summary of the method: as §1
# [7] = system: lambsquarters; assay: Test Example 5: herbicidal effect by foliage application, plastic box (Table 20, symbol O); assay type: in vivo, lambsquarters (Chenopodium album); conditions: for herbicidal effect on lambsquarters (O): foliage application, 320 g/ha, three weeks after application
# Summary of the method: as §1
# [8] = system: green foxtail; assay: Test Example 5: herbicidal effect by foliage application, plastic box (Table 20, symbol G); assay type: in vivo, green foxtail (Setaria viridis); conditions: for herbicidal effect on green foxtail (G): foliage application, 320 g/ha, three weeks after application
# Summary of the method: as §1
# [9] = system: barnyard grass; assay: Test Example 3: herbicidal effect by foliage application, Wagner pot (Table 18, symbol H); assay type: in vivo, barnyard grass (Echinochloa crus-galli); conditions: for herbicidal effect on barnyard grass (H): 320 g/ha
# Summary of the method: as §2
# [10] = system: persian speedwell; assay: Test Example 5: herbicidal effect by foliage application, plastic box (Table 20, symbol R); assay type: in vivo, Persian speedwell (Veronica persica); conditions: for herbicidal effect on persian speedwell (R): foliage application, 320 g/ha, three weeks after application
# Summary of the method: as §1
# [11] = system: Chinese sprangletop; assay: Test Example 3: herbicidal effect by foliage application, Wagner pot (Table 18, symbol D); assay type: in vivo, chinese sprangletop (Leptochloa chinensis); conditions: for herbicidal effect on Chinese sprangletop (D): 320 g/ha
# Summary of the method: as §2
# [12] = system: windgrass; assay: Test Example 5: herbicidal effect by foliage application, plastic box (Table 20, symbol L); assay type: in vivo, windgrass (Apera spica-venti); conditions: for herbicidal effect on windgrass (L): foliage application, 320 g/ha, three weeks after application
# Summary of the method: as §1
# [13] = system: wild oat; assay: Test Example 5: herbicidal effect by foliage application, plastic box (Table 20, symbol I); assay type: in vivo, wild oat (Avena fatua); conditions: for herbicidal effect on wild oat (I): foliage application, 320 g/ha, three weeks after application
# Summary of the method: as §1
# [14] = system: barnyard grass; assay: Test Example 5: herbicidal effect by foliage application, plastic box (Table 20, symbol H); assay type: in vivo, barnyard grass (Echinochloa crus-galli); conditions: for herbicidal effect on barnyard grass (H): foliage application, 320 g/ha, three weeks after application
# Summary of the method: as §1
# [15] = amount of applied herbicide 320 g/ha, foliage application after 14-day growth, evaluated three weeks after application
# [16] = amount of applied herbicide 320 g/ha
Structure (SMILES),herbicidal effect on rice flat sedge (E) [2],herbicidal effect on barnyard grass (H) [9],herbicidal effect on Chinese sprangletop (D) [11],herbicidal effect on southern crabgrass (F) [1],herbicidal effect on blackgrass (J) [4],herbicidal effect on velvetleaf (M) [5],herbicidal effect on Italian ryegrass (K) [6],herbicidal effect on lambsquarters (O) [7],herbicidal effect on green foxtail (G) [8],herbicidal effect on persian speedwell (R) [10],herbicidal effect on windgrass (L) [12],herbicidal effect on wild oat (I) [13],herbicidal effect on barnyard grass (H) [14],other results
COCc1ccccc1-c1sc2c(Cl)cccc2c1-c1c(O)c(C)nn(C)c1=O [4-081],0 (Herbicidal rate of 5% or less (almost no effect)),3 (Herbicidal rate of 40% or more and less than 70%),0 (Herbicidal rate of 5% or less (almost no effect)),,,,,,,,,,,"Herbicidal effect by foliage application, F: southern crabgrass [1, 15]: 0 (Herbicidal rate of 5% or less (almost no effect)); Herbicidal effect by foliage application, N: redroot pigweed [3]: 1 (Herbicidal rate of 5% or more and less than 20%); Herbicidal effect by foliage application, J: blackgrass [4, 15]: 0 (Herbicidal rate of 5% or less (almost no effect)); Herbicidal effect by foliage application, M: velvetleaf [5, 15]: 3 (Herbicidal rate of 40% or more and less than 70%); Herbicidal effect by foliage application, K: Italian ryegrass [6, 15]: 0 (Herbicidal rate of 5% or less (almost no effect)); Herbicidal effect by foliage application, O: lambsquarters [7, 15]: 1 (Herbicidal rate of 5% or more and less than 20%); Herbicidal effect by foliage application, G: green foxtail [8, 15]: 3 (Herbicidal rate of 40% or more and less than 70%); Herbicidal effect by foliage application, R: persian speedwell [10, 15]: 1 (Herbicidal rate of 5% or more and less than 20%); Herbicidal effect by foliage application, L: windgrass [12, 15]: 0 (Herbicidal rate of 5% or less (almost no effect)); Herbicidal effect by foliage application, I: wild oat [13, 15]: 0 (Herbicidal rate of 5% or less (almost no effect)); Herbicidal effect by foliage application, H: barnyard grass [14, 15]: 3 (Herbicidal rate of 40% or more and less than 70%)"
Cc1cc2sc(-c3ccc(F)cc3)c(-c3c(O)c(C)nn(C)c3=O)c2cc1C [5-088],2 (Herbicidal rate of 20% or more and less than 40%),3 (Herbicidal rate of 40% or more and less than 70%),2 (Herbicidal rate of 20% or more and less than 40%),0 (Herbicidal rate of 5% or less (almost no effect)),0 (Herbicidal rate of 5% or less (almost no effect)),2 (Herbicidal rate of 20% or more and less than 40%),1 (Herbicidal rate of 5% or more and less than 20%),0 (Herbicidal rate of 5% or less (almost no effect)),0 (Herbicidal rate of 5% or less (almost no effect)),4 (Herbicidal rate of 70% or more and less than 90%),0 (Herbicidal rate of 5% or less (almost no effect)),0 (Herbicidal rate of 5% or less (almost no effect)),0 (Herbicidal rate of 5% or less (almost no effect)),
COc1ccc(-c2sc3cc(C)c(C)cc3c2-c2c(O)c(C)nn(C)c2=O)cc1 [5-092],0 (Herbicidal rate of 5% or less (almost no effect)),2 (Herbicidal rate of 20% or more and less than 40%),0 (Herbicidal rate of 5% or less (almost no effect)),0 (Herbicidal rate of 5% or less (almost no effect)),0 (Herbicidal rate of 5% or less (almost no effect)),0 (Herbicidal rate of 5% or less (almost no effect)),0 (Herbicidal rate of 5% or less (almost no effect)),0 (Herbicidal rate of 5% or less (almost no effect)),0 (Herbicidal rate of 5% or less (almost no effect)),4 (Herbicidal rate of 70% or more and less than 90%),0 (Herbicidal rate of 5% or less (almost no effect)),0 (Herbicidal rate of 5% or less (almost no effect)),0 (Herbicidal rate of 5% or less (almost no effect)),
COc1ccccc1-c1sc2c(F)cc(F)cc2c1-c1c(O)c(C)nn(C)c1=O [6-001],4 (Herbicidal rate of 70% or more and less than 90%),3 (Herbicidal rate of 40% or more and less than 70%),2 (Herbicidal rate of 20% or more and less than 40%),0 (Herbicidal rate of 5% or less (almost no effect)),0 (Herbicidal rate of 5% or less (almost no effect)),4 (Herbicidal rate of 70% or more and less than 90%),0 (Herbicidal rate of 5% or less (almost no effect)),3 (Herbicidal rate of 40% or more and less than 70%),2 (Herbicidal rate of 20% or more and less than 40%),0 (Herbicidal rate of 5% or less (almost no effect)),0 (Herbicidal rate of 5% or less (almost no effect)),0 (Herbicidal rate of 5% or less (almost no effect)),3 (Herbicidal rate of 40% or more and less than 70%),
CCOc1ccccc1-c1oc2ccc(Cl)cc2c1-c1c(O)c(C)nn(C)c1=O [9-003],,,,0 (Herbicidal rate of 5% or less (almost no effect)),0 (Herbicidal rate of 5% or less (almost no effect)),3 (Herbicidal rate of 40% or more and less than 70%),0 (Herbicidal rate of 5% or less (almost no effect)),0 (Herbicidal rate of 5% or less (almost no effect)),0 (Herbicidal rate of 5% or less (almost no effect)),3 (Herbicidal rate of 40% or more and less than 70%),0 (Herbicidal rate of 5% or less (almost no effect)),0 (Herbicidal rate of 5% or less (almost no effect)),0 (Herbicidal rate of 5% or less (almost no effect)),"Herbicidal effect on E (rice flat sedge), foliage application [2, 16]: 1 (Herbicidal rate of 5% or more and less than 20%); Herbicidal effect on H (barnyard grass), foliage application [9, 16]: 3 (Herbicidal rate of 40% or more and less than 70%); Herbicidal effect on D (Chinese sprangletop), foliage application [11, 16]: 0 (Herbicidal rate of 5% or less (almost no effect))"
